Measurements reported in BindingDB's records for doi:10.1074/jbc.M113.514067 (Genentech, 2014).
pIC50: −log10 of the molar value.

Biological target: Proprotein convertase subtilisin/kexin type 9 (Homo sapiens, UniProt Q8NBP7)
Assay: PCSK9 Inhibition Assay
Procedure: For the peptide affinity determinations, biotinylated PCSK9 was immobilized to NeutrAvidin-coated MaxiSorp Immuno-Plates and incubated with a mixture of serially diluted synthetic peptide (Pep2-2 or Pep2 at 0-100 μM) and the correspondingpeptide-displaying phage at the earlier determined subsaturating concentration (see above). After a 1-h incubation in PBT buffer (PBS, 0.5% BSA, 0.05% Tween 20), the plate was washed extensively, and the bound phage was detected by anti-M13-HRP. The data were fitted to a four-parameter equation (KaleidaGraph) to determine the IC50 values. For IC50 measurements of the Pep2-2 derivatives (Fig. 1C) and for the truncated Pep2-8 peptides (Table 1), we used the peptides in a concentration range of 0-250 μM and the Pep2-2-displaying phage at subsaturating concentrations.

Sequence of Proprotein convertase subtilisin/kexin type 9 (Q8NBP7 31-152 limits assumed): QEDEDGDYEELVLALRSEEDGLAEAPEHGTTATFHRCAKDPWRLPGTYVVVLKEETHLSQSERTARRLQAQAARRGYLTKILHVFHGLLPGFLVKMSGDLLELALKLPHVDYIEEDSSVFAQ
Sequence of Proprotein convertase subtilisin/kexin type 9 (Q8NBP7 153-692 limits assumed): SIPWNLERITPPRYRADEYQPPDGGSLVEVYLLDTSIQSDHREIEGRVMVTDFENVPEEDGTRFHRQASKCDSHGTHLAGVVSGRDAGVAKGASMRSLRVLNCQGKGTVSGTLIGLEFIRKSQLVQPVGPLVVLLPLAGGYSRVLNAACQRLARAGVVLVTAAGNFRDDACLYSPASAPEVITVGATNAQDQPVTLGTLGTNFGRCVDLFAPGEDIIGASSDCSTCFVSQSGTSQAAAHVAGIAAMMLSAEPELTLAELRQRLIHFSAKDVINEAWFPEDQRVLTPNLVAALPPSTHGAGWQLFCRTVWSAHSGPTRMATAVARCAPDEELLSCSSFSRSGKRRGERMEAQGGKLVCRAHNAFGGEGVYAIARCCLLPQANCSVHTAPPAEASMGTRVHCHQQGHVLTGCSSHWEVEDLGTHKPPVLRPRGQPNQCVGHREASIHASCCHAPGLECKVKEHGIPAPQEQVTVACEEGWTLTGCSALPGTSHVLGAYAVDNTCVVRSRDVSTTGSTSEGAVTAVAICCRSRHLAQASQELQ

Ac-VVFTSWQDYLFWV-NH2 [VVFTSWQDYLFWV]
pIC50: 4.42

Ac-VFTSWEEYLLWV-NH2 [VFTSWEEYLLWV]
pIC50: 5.40

Ac-TVFTSWEEYLLWV-NH2 [TVFTSWEEYLLWV]
pIC50: 6.12

Ac-TVFTSWEEYLLW-NH2 [TVFTSWEEYLLW]
pIC50: 5.21

Ac-TVFTSWEEYL-NH2 [TVFTSWEEYL]
pIC50: 4.75

CC(=O)N[C@H](C(=O)N[C@H](C(=O)N[C@@H](Cc1ccccc1)C(=O)N[C@H](C(=O)N[C@@H](CO)C(=O)N[C@@H](Cc1c[nH]c2ccccc12)C(=O)N[C@@H](CCC(=O)O)C(=O)N[C@@H](CCC(=O)O)C(=O)N[C@@H](Cc1ccc(O)cc1)C(=O)N[C@@H](CC(C)C)C(=O)N[C@@H](CC(=O)O)C(=O)N[C@@H](Cc1c[nH]c2ccccc12)C(=O)N[C@H](C(N)=O)C(C)C)[C@@H](C)O)C(C)C)[C@@H](C)O [TVFTSWEEYLDWV]
pIC50: 5.85

Ac-TVFTSWEEYLL-NH2 [TVFTSWEEYLL]
pIC50: 5.00
